Among the test systems are HL-60; MDA-MB-435; SK-OV-3; SF-268; LOX IMVI; NCI-H23; OVCAR-5; RXF 393; HOP-62; CAKI-1; T47D; 786-0; TK-10; UO-31; CCRF-CEM; SK-MEL-2; MOLT-4; NCI/ADR-RES; OVCAR-4; HOP-92.
Experiment in all cases: NCI tumour cell line growth inhibition, 48 h

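Following 48 hours of exposure in 96-well plates, responses at five concentrations were used to interpolate endpoints linearly. GI50: concentration for 50% inhibition of growth.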 Activity calls are given as the source filed them. Rule as the data show it: active = GI50 up to about 1.1 µM and inactive = higher.

Turning to `Cc1c(CNc2ccc(Cl)c(C(=O)NC(CC(=O)O)C(=O)O)c2)ccc2nc(N)nc(N)c12` (configuration not stated), the GI50 in the experiment with HL-60 is 2.42 µM (inactive); in the experiment with MDA-MB-435, < 0.01 µM (active); in the experiment on SK-OV-3 it was 33.7 µM (inactive); with SF-268, 0.209 µM (active); in the experiment with LOX IMVI, < 0.0118 µM (active); in the experiment on NCI-H23, 0.142 µM (active). Moreover, the GI50 is 1.4 µM (inactive) in the experiment on OVCAR-5; > 39.4 µM (inactive) in the experiment with RXF 393; 0.256 µM (active) with HOP-62; < 0.0311 µM (active) with CAKI-1; > 100 µM (inactive) in the experiment with T47D; < 0.01 µM (active) in the experiment on 786-0. Also, the GI50 was 5.12 µM (inactive) in the experiment with TK-10, 0.665 µM (active) in the experiment with UO-31, 0.0753 µM (active) with CCRF-CEM and > 100 µM (inactive) with SK-MEL-2.

As for `CC1=C(\C=C/C(C)=C/C=C/C(C)=C/C=C/C=C(C)\C=C\C=C(C)/C=C/C2=C(C)CCCC2(C)C)C(C)(C)CCC1`, the GI50 in the experiment on MDA-MB-435 was 68.9 µM (inactive); in the experiment on SK-OV-3 it was > 100 µM (inactive); in the experiment on SF-268, > 100 µM (inactive); in the experiment with LOX IMVI, > 100 µM (inactive); in the experiment on NCI-H23, 34.2 µM (inactive); in the experiment on OVCAR-5, > 100 µM (inactive). The GI50 was 33 µM (inactive) with RXF 393; > 100 µM (inactive) in the experiment with HOP-62; > 100 µM (inactive) with MOLT-4; 19.5 µM (inactive) with T47D; > 100 µM (inactive) in the experiment on 786-0; > 100 µM (inactive) in the experiment on TK-10. In addition, the GI50 in the experiment on UO-31, with CCRF-CEM, with NCI/ADR-RES, in the experiment on SK-MEL-2 and in the experiment with OVCAR-4 was > 100 µM (inactive) each time.

Consider `COC(=O)CSC1CC(=O)c2c(Cl)sc(Cl)c21` (configuration not stated), for which the GI50 in the experiment on MDA-MB-435, in the experiment on SK-OV-3, in the experiment on SF-268, in the experiment with LOX IMVI, in the experiment with NCI-H23 and with HOP-92 was > 100 µM (inactive) each time. Further, the GI50 with OVCAR-5, in the experiment on RXF 393, in the experiment with HOP-62, in the experiment on CAKI-1, in the experiment on MOLT-4 and in the experiment with T47D was > 100 µM (inactive) each time. Besides, the GI50 with 786-0, in the experiment with TK-10, with UO-31, with CCRF-CEM, in the experiment with SK-MEL-2 and in the experiment on OVCAR-4 was > 100 µM (inactive) in each case.

Regarding `C/C=C1\CC2C(=O)CCC2C2c3ccccc3OC12` (configuration not stated), the GI50 in the experiment on HL-60 was 87.7 µM (inactive); in the experiment with MDA-MB-435 it was > 100 µM (inactive); in the experiment on SK-OV-3 it was > 100 µM (inactive); with SF-268, > 100 µM (inactive); with LOX IMVI it was > 100 µM (inactive); with NCI-H23 it was > 100 µM (inactive). Moreover, the GI50 in the experiment with HOP-92, with OVCAR-5, in the experiment on RXF 393, with HOP-62, in the experiment on CAKI-1 and with MOLT-4 was > 100 µM (inactive) throughout. Also, the GI50 in the experiment with 786-0, with TK-10, in the experiment with UO-31, in the experiment on CCRF-CEM, with NCI/ADR-RES and with SK-MEL-2 was > 100 µM (inactive) each time. Further, in the experiment on OVCAR-4, the GI50 is > 100 µM (inactive).

Regarding `O=C(Nc1ccccc1)N(C1=NCC(CI)S1)c1ccc(F)c(F)c1` (configuration not stated), the GI50 in the experiment on HL-60 is 21.4 µM (inactive); in the experiment on SK-OV-3 it was > 100 µM (inactive); in the experiment on SF-268, 21.3 µM (inactive); in the experiment with LOX IMVI, 15.2 µM (inactive); in the experiment on NCI-H23 it was 29.2 µM (inactive); with HOP-92, 7.03 µM (inactive). The GI50 is > 100 µM (inactive) in the experiment on OVCAR-5; > 100 µM (inactive) in the experiment on HOP-62; 24.1 µM (inactive) in the experiment with CAKI-1; 19.5 µM (inactive) in the experiment on MOLT-4; 18.3 µM (inactive) with T47D; 43.2 µM (inactive) in the experiment with 786-0. The GI50 with TK-10 was 44 µM (inactive); in the experiment on UO-31 it was 44.7 µM (inactive); in the experiment with CCRF-CEM, 19.3 µM (inactive); in the experiment with NCI/ADR-RES it was 30.8 µM (inactive); with SK-MEL-2, 23.9 µM (inactive); in the experiment with OVCAR-4, 29.4 µM (inactive).

Take `CN(C(=O)c1ccc(Cl)s1)C(=S)N(C)C(=O)c1ccc(Cl)s1`: the GI50 with HL-60, in the experiment on SK-OV-3, in the experiment with SF-268, with LOX IMVI, with NCI-H23 and in the experiment on HOP-92 was > 10 µM (inactive) each time. Besides, the GI50 with OVCAR-5, with RXF 393, with HOP-62, in the experiment with CAKI-1, in the experiment on MOLT-4 and in the experiment on T47D was > 10 µM (inactive) in each case. The GI50 with 786-0, in the experiment on TK-10, in the experiment with UO-31, with CCRF-CEM, in the experiment with NCI/ADR-RES and in the experiment on SK-MEL-2 was > 10 µM (inactive) throughout. In the experiment on OVCAR-4, the GI50 is > 10 µM (inactive).

Consider `CN(C)CCNC(=O)c1cccc(N(C)C(=O)c2ccccc2)c1[N+](=O)[O-]`, for which the GI50 in the experiment on HL-60, in the experiment with MDA-MB-435, with SK-OV-3, with SF-268, in the experiment on NCI-H23 and with OVCAR-5 was > 100 µM (inactive) throughout. The GI50 in the experiment with HOP-62, in the experiment on CAKI-1, with MOLT-4, with T47D, in the experiment with 786-0 and in the experiment on TK-10 was > 100 µM (inactive) each time. Further, the GI50 with UO-31, with CCRF-CEM, with NCI/ADR-RES and with SK-MEL-2 was > 100 µM (inactive) in each case.

As for `CCOC(=O)Cc1csc2[n+]1C(=O)/C(=C\c1cccc(Cl)c1Cl)S2`, the GI50 was 19.5 µM (inactive) in the experiment on HL-60; 13.7 µM (inactive) in the experiment with MDA-MB-435; 17.3 µM (inactive) in the experiment with SK-OV-3; 29.2 µM (inactive) in the experiment with SF-268; 18.4 µM (inactive) in the experiment on LOX IMVI; 13.3 µM (inactive) with NCI-H23. The GI50 was 6.85 µM (inactive) in the experiment with HOP-92; 32.6 µM (inactive) in the experiment with OVCAR-5; 16.7 µM (inactive) in the experiment on RXF 393; 20.8 µM (inactive) in the experiment on HOP-62; 23.6 µM (inactive) in the experiment on CAKI-1; 10.3 µM (inactive) with MOLT-4. Further, the GI50 in the experiment on 786-0 was 15.8 µM (inactive); in the experiment on TK-10, 16 µM (inactive); in the experiment on UO-31, 12.7 µM (inactive); in the experiment with CCRF-CEM, 12.7 µM (inactive); with NCI/ADR-RES, 16.7 µM (inactive); in the experiment with SK-MEL-2, 10.6 µM (inactive). For the same compound, the GI50 with OVCAR-4 was 11.6 µM (inactive).

`CCCCOC(=O)C(=O)C(CC(CC)C(=O)c1ccccc1)C(=O)C=C(C)C` (configuration not stated): the GI50 in the experiment on HL-60, in the experiment on MDA-MB-435, with SK-OV-3, in the experiment on SF-268, with LOX IMVI and in the experiment on NCI-H23 was > 100 µM (inactive) each time. Also, the GI50 in the experiment on HOP-92, with OVCAR-5, in the experiment with RXF 393, in the experiment on HOP-62, in the experiment on CAKI-1 and with MOLT-4 was > 100 µM (inactive) in each case. In addition, the GI50 with 786-0, with TK-10, in the experiment on UO-31, in the experiment with CCRF-CEM, in the experiment on NCI/ADR-RES and in the experiment with SK-MEL-2 was > 100 µM (inactive) throughout. Besides, in the experiment on OVCAR-4, the GI50 was > 100 µM (inactive).

Consider `COC(=O)C1Cc2ccc(C)cc2C1=O` (configuration not stated), for which the GI50 was 25.8 µM (inactive) in the experiment on HL-60; > 100 µM (inactive) in the experiment on MDA-MB-435; > 100 µM (inactive) in the experiment with SK-OV-3; > 100 µM (inactive) with SF-268; > 100 µM (inactive) in the experiment with LOX IMVI; > 100 µM (inactive) in the experiment with NCI-H23. Moreover, the GI50 with OVCAR-5, with HOP-62, in the experiment on CAKI-1, in the experiment on MOLT-4, in the experiment on T47D and in the experiment on 786-0 was > 100 µM (inactive) in each case. The GI50 in the experiment with TK-10, in the experiment on UO-31, in the experiment on CCRF-CEM, in the experiment on NCI/ADR-RES, with SK-MEL-2 and in the experiment with OVCAR-4 was > 100 µM (inactive) in each case.

Regarding `Cc1ccc(S(=O)(=O)NC(=O)NCCc2c[nH]cn2)cc1`, the GI50 with HL-60, in the experiment with MDA-MB-435, in the experiment on SK-OV-3, in the experiment with SF-268, in the experiment on LOX IMVI and with NCI-H23 was > 100 µM (inactive) each time. Moreover, the GI50 in the experiment on HOP-92, with OVCAR-5, in the experiment on RXF 393, with HOP-62, in the experiment on CAKI-1 and with MOLT-4 was > 100 µM (inactive) throughout. For the same compound, the GI50 in the experiment on 786-0, with TK-10, in the experiment with UO-31, in the experiment on NCI/ADR-RES, with SK-MEL-2 and in the experiment on OVCAR-4 was > 100 µM (inactive) in each case.

(Values after ChEMBL document CHEMBL1201862, “PubChem BioAssay data set” (2004).)
